Assays:
[1] = molecular target: binding between Nrf2 and Keap1 (Homo sapiens (Human), UniProt Q14145); assay: FP assay (in vitro): inhibition of Nrf2-Keap1 binding by fluorescence polarization; details: GST-fused human Keap1 (325-642) 20 nM, FITC-labeled Nrf2 peptide 10 nM, 2 hr at room temperature
[2] = system: NQO1 activity in Hepa1c1c7 cells; assay: NAD(P)H: quinone oxidoreductase-1 (NQO1) enzyme induction assay (in vitro); assay type: cell-based, mouse; details: about 48 hr; for fold induction at 0.4 µM: Mus musculus, Hepa-1c1c7, NQO1 activity with 400 nM test compound as a ratio from the base without compound
Protocol: The NQO1 assay was performed based on a previous report (Methods in Enzymology 2004; 382: 243-258). Hepa1c1c7 cells (mouse hepatocyte cell line, ATCC, cat. no. CRL-2026) were cultured in D-MEM medium containing 10% FBS and 1% penicillin/streptomycin (5% CO2, 37° C.), and seeded into 96-well plates (Corning REF. 353072) at 1×10^4 cells/well. A portion of the wells were prepared with medium only for background measurement without seeding cells. The next day, 400 nM of the test compound (0.004% of the final concentration in DMSO) dissolved in DMSO was added thereto, and the wells were incubated for about 48 hr. A well without adding the test compound was prepared for base activity assay in part. […] After the medium was removed, 50 μL of the cell lysate was added and incubated at 37° C. for 10 minutes, followed by shaking at room temperature for 10 minutes. 200 μL of reaction solution was added thereto, and allowed to stand for 5 minutes at room temperature. 50 μL of the stop solution was added thereto, and absorbance was measured at 610 nm on a SpectraMax PLUS384 (Molecular devices) or […] Pharma Biomedical). The test results were analyzed in Excel, and the NQO1 activity upon addition of 400 nM of test compound was calculated as a ratio from the base without the compound. NQO1 activity ratio when test compound is added=(absorbance when test compound is added-absorbance of medium only)/(absorbance without addition of compound-absorbance of medium only) [numerical formula 2] The results of each test compound in this test are shown in the following Table 2 (A:5<NQO1 activity ratio, B:3<NQO1 activity ratio≤5).

Chain of binding between Nrf2 and Keap1 (Q14145 325-624 limits assumed): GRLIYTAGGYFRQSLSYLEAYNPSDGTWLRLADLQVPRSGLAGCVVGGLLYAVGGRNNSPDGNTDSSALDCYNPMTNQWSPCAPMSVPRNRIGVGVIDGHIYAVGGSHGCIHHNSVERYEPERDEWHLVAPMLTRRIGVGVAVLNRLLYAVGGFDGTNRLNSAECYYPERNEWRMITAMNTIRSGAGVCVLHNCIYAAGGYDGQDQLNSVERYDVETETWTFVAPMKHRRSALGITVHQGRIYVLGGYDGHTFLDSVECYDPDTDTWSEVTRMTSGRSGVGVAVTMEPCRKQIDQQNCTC

Row | SMILES | IC50 [1] | fold induction at 0.4 µM [2] | activity ratio ([2]; NQO1 activity with 400 nM test compound as a ratio from the base without compound)
1 | CC[C@@H]1CN(Cc2cc([C@@H](CC(=O)O)c3ccc4c(nnn4C)c3C)cc3ccsc23)C(C)c2nc(O)ccc2O1 (single isomer, unassigned) [Example 78, (3R)-3-(1,4-Dimethyl-1H-benzotriazol-5-yl)-3-(7-{[(2R,5S*)-2-ethyl-7-hydroxy-5-methyl-2,3-dihydropyrido[2,3-f][1,4]oxazepin-4(5H)-yl]methyl}-1-benzothiophen-5-yl)propanoic acid] | 10 to 30 nM | > 5 | –
2 | Cc1c([C@H](CC(=O)O)c2cc(CN3C[C@@H](C4CC4)Oc4ccc(O)nc4C3C)c3sccc3c2)ccc2c1nnn2C (single isomer, unassigned) [Example 83, (3R)-3-(7-{[(2R,5S*)-2-Cyclopropyl-7-hydroxy-5-methyl-2,3-dihydropyrido[2,3-f][1,4]oxazepin-4(5H)-yl]methyl}-1-benzothiophen-5-yl)-3-(1,4-dimethyl-1H-benzotriazol-5-yl)propanoic acid] | 30 to 100 nM | > 5 | –
3 | Cc1c([C@H](CC(=O)O)c2cc(CN3C[C@@H](C4CC4)Oc4ccc(O)nc4C3C)c3sccc3c2)cnc2c1nnn2C (single isomer, unassigned) [Example 85, (3R)-3-(7-{[(2R,5R*)-2-Cyclopropyl-7-hydroxy-5-methyl-2,3-dihydropyrido[2,3-f][1,4]oxazepin-4(5H)-yl]methyl}-1-benzothiophen-5-yl)-3-(3,7-dimethyl-3H-[1,2,3]triazolo[4,5-b]pyridin-6-yl)propanoic acid] | 10 to 30 nM | > 5 | –
4 | Cc1c([C@H](CC(=O)O)c2cc(CN3C[C@@H](C4CC4)Oc4ccc(O)nc4C3C)c3sccc3c2)cnc2c1nnn2C (single isomer, unassigned) [Example 86, (3R)-3-(7-{[(2R,5S*)-2-Cyclopropyl-7-hydroxy-5-methyl-2,3-dihydropyrido[2,3-f][1,4]oxazepin-4(5H)-yl]methyl}-1-benzothiophen-5-yl)-3-(3,7-dimethyl-3H-[1,2,3]triazolo[4,5-b]pyridin-6-yl)propanoic acid] | 30 to 100 nM | – | A (5<NQO1 activity ratio)
5 | Cc1c([C@H](CC(=O)O)c2cc(CN3CC4(CC4)Oc4ccc(O)nc4[C@H]3C)c3sccc3c2)ccc2c1nnn2C (single isomer, unassigned) [Example 88, (3R)-3-(1,4-Dimethyl-1H-benzotriazol-5-yl)-3-(7-{[(5′R*)-7′-hydroxy-5′-methyl-3′H-spiro[cyclopropane-1,2′-pyrido[2,3-f][1,4]oxazepin]-4′(5′H)-yl]methyl}-1-benzothiophen-5-yl)propanoic acid] | 10 to 30 nM | > 5 | –
6 | CC[C@@H]1CN(Cc2cc(C(CC(=O)O)c3cc(O)c4c(nnn4C)c3C)cc3ccsc23)[C@@H](C)c2ncccc2O1 (single isomer, unassigned) [Example 93, (3S*)-3-(7-{[(2R,5S)-2-Ethyl-5-methyl-2,3-dihydropyrido[2,3-f][1,4]oxazepin-4(5H)-yl]methyl}-1-benzothiophen-5-yl)-3-(7-hydroxy-1,4-dimethyl-1H-benzotriazol-5-yl)propanoic acid] | ≤ 10 nM | > 5 | –
7 | CC[C@@H]1CN(Cc2cc([C@@H](CC(=O)O)c3cc(O)c4c(nnn4C)c3C)cc3ccsc23)[C@@H](C)c2ncccc2O1 (single isomer, unassigned) [Example 94, (3R*)-3-(7-{[(2R,5S)-2-Ethyl-5-methyl-2,3-dihydropyrido[2,3-f][1,4]oxazepin-4(5H)-yl]methyl}-1-benzothiophen-5-yl)-3-(7-hydroxy-1,4-dimethyl-1H-benzotriazol-5-yl)propanoic acid] | ≤ 10 nM | > 5 | –
8 | CC[C@@H]1CN(Cc2cc(C(CC(=O)O)c3ccc4c(nnn4C)c3C)cc3ccsc23)S(=O)(=O)c2cc(Cl)cnc2O1 (stereo partly drawn) [Example 1, 3-(7-{[(4R)-8-Chloro-4-ethyl-1,1-dioxido-3,4-dihydro-2H-pyrido[2,3-b][1,4,5]oxathiazepin-2-yl]methyl}-1-benzothiophen-5-yl)-3-(1,4-dimethyl-1H-benzotriazol-5-yl)propanoic acid] | 30 to 100 nM | > 5 | –
